Laboratory results published in patent publication US20220213030A1, “AMINOGUANIDINE HYDRAZONES AS RETROMER STABILIZERS USEFUL FOR TREATING NEUROLOGICAL DISEASES” (OSPEDALE SAN RAFFAELE SRL, priority 2019, published 2022).
“Also recorded” adds a separate entry of the source.

What was measured:
CI-MPR = CI-MPR MFI in MNs of G93A mice; type: in vivo, mouse; conditions: 10 mg/kg, day 100
Text: We next assayed retromer proteins labelling sections of mice sacrificed at day 100 for VPS35 and NeuN. […] Similarly, we observed that VPS26 levels were increased in G93A mice receiving compound 2a (FIG. 11B). We further corroborated our experimental finding observing that compound 2a increased retromer functionality. The cation-independent mannose 6-phosphate receptor (CI-MPR) is a cargo (Arighi et al., 2004) of the retromer complex that is unstable in VPS26 knockout cells (Seaman 2004). We observed a substantial reduction of CI-MPR MFI levels in MNs of vehicle-treated G93A mice when compared with WT litters (FIG. 11C). […] Sortilin encodes for a receptor belonging to the Vps10 family, and it has been involved in Frontotemporal Dementia (FTD), (Lane 2012).
Sections from mice (frozen cryo sections) or glass covers containing cells were washed three times in PBS 1× (Lonza, 5 min each), and incubated in the following blocking mix: PBS 1×/FBS 10% (Invitrogen), BSA 1 mg/mL (Sigma), TritonX100 0.1% (Sigma), for 1 h at room temperature. Antibodies were diluted in blocking mix and incubated at +4° C. overnight according manufacturer's instructions. […]

Sortilin = Sortilin MFI in MNs of G93A mice; type: in vivo, mouse; conditions: 10 mg/kg, day 100
Text: We next assayed retromer proteins labelling sections of mice sacrificed at day 100 for VPS35 and NeuN. […] Similarly, we observed that VPS26 levels were increased in G93A mice receiving compound 2a (FIG. 11B). We further corroborated our experimental finding observing that compound 2a increased retromer functionality. The cation-independent mannose 6-phosphate receptor (CI-MPR) is a cargo (Arighi et al., 2004) of the retromer complex that is unstable in VPS26 knockout cells (Seaman 2004). We observed a substantial reduction of CI-MPR MFI levels in MNs of vehicle-treated G93A mice when compared with WT litters (FIG. 11C). […]
Fluorescence intensity levels of VPS35, VPS26, Sortilin, CTSD and Ubiquitin were calculated using NHI-Image J software (US National Institutes of Health) according to the following protocol: stacks of confocal images were used to generate the maximal projections (Las-X) and then post-processed by NHI-Image J to crop single NeuN^+ MNs from the ventral horn of the spinal cord. We next performed background (calculated on adjacent slices only receiving secondary antibodies) subtraction for each channel, before applying the NHI-Image J mean filter (with radius 2.0 pixels) to calculate mean NeuN fluorescence levels in individual MN. […] On this selected ROI, we calculated mean fluoresce levels (MFI) of each protein.

VPS35 = VPS35 (Mus musculus, UniProt Q9EQH3+Q9QZ88); test: VPS35 levels in Neuro2a cells by Western blot (screening of amino guanidine hydrazones); type: cell-based; parameters: endogenous in cells; host or cells: Neuro2a; conditions: 48 hours
Procedure: To functionally screen the majority of synthetized amino guanidine hydrazones of the invention and determine their effects on the retromer complex, we incubated Neuro2a cells with each synthetized molecule at the concentration of 10 μM.
The test was executed in triplicate for each tested compound of the invention, cells lysates were established after 48 hours' incubation, and levels of VPS35 were normalized on the housekeeping gene β-Actin by Western blot. We observed a preliminary SAR among the compounds.
Fold changes are calculated over normalized VPS35 levels measured in vehicle-treated cells.
Neuro2a cells were seeded on 12 wells multiwell at the concentration of 100 000 cells/well. Cells were incubated with each compound, including the standard R55, at 10 μM for 48 hours. Cells were then washed in PBS 1× and lysed in a buffer containing Tris-HCl 10 mM pH8, EDTA 1 mM pH8, NaCl 100 mM, NP40 1%, with protease inhibitor cocktail (Sigma) 1×. Using a cell scraper total lysates were collected from each well, quantified with BCA (BCA protein assay, Thermofisher). Five μg were resolved on precast 10% acrylamide gel (Biorad). Proteins were transferred to a PVDF membrane (Millipore) and western blot were performed using the following antibodies: goat αVPS35 (1:1000), mouse α-βActin (1:10000). Detection of proteins was obtained by a chemiluminescence detection kit (PerkinElmer).

SMILES: N=C(N)NN=Cc1cccc(C=NNC(=N)N)c1 [Compound 2a, 1,3-Bis-amino guanidine phenyl hydrazone]
- CI-MPR MFI levels (CI-MPR): significantly increased
- Sortilin MFI levels (Sortilin): significantly increased Sortilin levels
- Mean fold changes (VPS35 levels normalized on β-Actin, over vehicle-treated cells) (VPS35; 10 μM, independent cultures n=3): 1.951
- VPS35 levels (in words) (VPS35; compounds at 10 μM): able to consistently increase VPS35 levels with a limited variability among replicates; also recorded: increased
